Values quoted from earlier work in patent US20210315817A1, “C[…] SELF-EMULSION SYSTEMS FOR INFUSED COMPOSITIONS” (HEXO […]., priority 2018, published 2021).

Settings: individual emulsifier HLB value

In the case of “polyoxyethylene sorbitan monolaurate [Tween ® 20]”, the “Emuls. HLB” value is given as 16.7.
